Drawing on PubChem BioAssay AID1259407 (Chemical Carcinogenesis Research Information System (CCRIS), 2018), this text covers mutagenic call for 10 compounds.

Activity calls are given as the source filed them. How the calls were made is not given here.

The data set concerns CCRIS mutagenicity, Ames/micronucleus/aberration tests. As to the kind of experiment: CCRIS mutagenicity studies.
The mark [1] stands for this setting: Test System: AMES SALMONELLA TYPHIMURIUM, Strain/Indicator: TA98, Metabolic Activation: NONE, Method: STANDARD PLATE.
[2] abbreviates: Test System: AMES SALMONELLA TYPHIMURIUM, Strain/Indicator: TA98, Metabolic Activation: RAT, LIVER, S-9, AROCLOR 1254, Method: STANDARD PLATE.
Where [3] appears, read: Test System: AMES SALMONELLA TYPHIMURIUM, Strain/Indicator: TA100, Metabolic Activation: NONE, Method: STANDARD PLATE.
The mark [4] stands for this setting: Test System: AMES SALMONELLA TYPHIMURIUM, Strain/Indicator: TA100, Metabolic Activation: RAT, LIVER, S-9, AROCLOR 1254, Method: STANDARD PLATE.
Setting [5] is: Test System: AMES SALMONELLA TYPHIMURIUM, Strain/Indicator: TA1535, Metabolic Activation: NONE, Method: STANDARD PLATE.
[6] abbreviates: Test System: AMES SALMONELLA TYPHIMURIUM, Strain/Indicator: TA1535, Metabolic Activation: RAT, LIVER, S-9, AROCLOR 1254, Method: STANDARD PLATE.
Setting [7] is: Test System: AMES SALMONELLA TYPHIMURIUM, Strain/Indicator: TA1537, Metabolic Activation: NONE, Method: STANDARD PLATE.
Setting [8] is: Test System: AMES SALMONELLA TYPHIMURIUM, Strain/Indicator: TA1537, Metabolic Activation: RAT, LIVER, S-9, AROCLOR 1254, Method: STANDARD PLATE.
Where [9] appears, read: Test System: AMES SALMONELLA TYPHIMURIUM, Strain/Indicator: TA1538, Metabolic Activation: NONE, Method: STANDARD PLATE.
The mark [10] stands for this setting: Test System: AMES SALMONELLA TYPHIMURIUM, Strain/Indicator: TA1538, Metabolic Activation: RAT, LIVER, S-9, AROCLOR 1254, Method: STANDARD PLATE.

Take `C=CCOc1ccccc1OCC(O)CN(N=O)C(C)C` (stereo unspecified): the mutagenic call (Test System: CHINESE HAMSTER V-79, Strain/Indicator: V-79/6-THIOGUANINE, Metabolic Activation: NONE, Method: REPLATING) was “inactive; negative”; the mutagenic call (Test System: CHINESE HAMSTER V-79, Strain/Indicator: V-79/6-THIOGUANINE, Metabolic Activation: RAT, HEPATOCYTES, Method: REPLATING) was “active; positive”; the mutagenic call (Test System: CHINESE HAMSTER V-79, Strain/Indicator: V-79/OUABAIN, Metabolic Activation: NONE) is “inactive; negative”; the mutagenic call (Test System: CHINESE HAMSTER V-79, Strain/Indicator: V-79/OUABAIN, Metabolic Activation: RAT, HEPATOCYTES) is “inactive; negative”; the mutagenic call (Test System: UDS HUMAN HEPATOCYTES, Strain/Indicator: THY INCORP, Metabolic Activation: NONE, Method: AUTORADIOGRAPHY) was “active; positive”; the mutagenic call (Test System: UDS RAT HEPATOCYTES, Strain/Indicator: THY INCORP, Metabolic Activation: NONE, Method: AUTORADIOGRAPHY) is “active; positive”.

Turning to `OCCCc1ccccc1`, the mutagenic call is, setting by setting: (Test System: AMES SALMONELLA TYPHIMURIUM, Strain/Indicator: TA98, Metabolic Activation: HAMSTER, LIVER, S-9, AROCLOR 1254, Method: STANDARD PLATE) “inactive; negative”; under setting [1], “inactive; negative”; under setting [2], “inactive; negative”; (Test System: AMES SALMONELLA TYPHIMURIUM, Strain/Indicator: TA100, Metabolic Activation: HAMSTER, LIVER, S-9, AROCLOR 1254, Method: STANDARD PLATE) “inactive; negative”; under setting [3], “inactive; negative”; under setting [4], “inactive; negative”. Also, the mutagenic call (Test System: AMES SALMONELLA TYPHIMURIUM, Strain/Indicator: TA1535, Metabolic Activation: HAMSTER, LIVER, S-9, AROCLOR 1254, Method: STANDARD PLATE) is “inactive; negative”; the mutagenic call under setting [5] was “inactive; negative”; the mutagenic call under setting [6] is “inactive; negative”; the mutagenic call (Test System: AMES SALMONELLA TYPHIMURIUM, Strain/Indicator: TA1537, Metabolic Activation: HAMSTER, LIVER, S-9, AROCLOR 1254, Method: STANDARD PLATE) is “inactive; negative”; the mutagenic call under setting [7] is “inactive; negative”; the mutagenic call under setting [8] is “inactive; negative”. The mutagenic call (Test System: AMES SALMONELLA TYPHIMURIUM, Strain/Indicator: TA1538, Metabolic Activation: HAMSTER, LIVER, S-9, AROCLOR 1254, Method: STANDARD PLATE) is “inactive; negative”; the mutagenic call under setting [9] is “inactive; negative”; the mutagenic call under setting [10] was “inactive; negative”; the mutagenic call (Test System: MOUSE LYMPHOMA, Strain/Indicator: L5178Y (TK+/TK-), Metabolic Activation: NONE, Method: SUSPENSION/PLATE) is “inactive; negative. reevaluation of results: negative”; the mutagenic call (Test System: MOUSE LYMPHOMA, Strain/Indicator: L5178Y (TK+/TK-), Metabolic Activation: RAT, LIVER, S-9, AROCLOR 1254, Method: SUSPENSION/PLATE) is “inactive; negative. reevaluation of results: negative”.

In the case of `CN(C)CCNC(=O)c1cccc2oc(-c3ccccc3)nc12`, the mutagenic call under setting [7] is “inactive; negative”.

In the case of `NNC(=O)NC(=O)NN`, the mutagenic call (Test System: E. COLI WP2, Strain/Indicator: WP2, Metabolic Activation: NONE, Method: STANDARD PLATE) is “active; positive”.

As for `CC(C)(C)NC[C@H](O)COc1ccc(O)cc1C1CCCC1`, the mutagenic call is, setting by setting: under setting [1], “inactive; negative”; under setting [2], “inactive; negative”.

Consider `CCCCCCC[CH2][Sn]([Cl])([Cl])[CH2]CCCCCCC`, for which the mutagenic call was “active; positive” (Test System: CHINESE HAMSTER V-79, Strain/Indicator: V-79/8-AZAGUANINE, Metabolic Activation: NONE) and “inactive; negative” (Test System: CHINESE HAMSTER V-79, Strain/Indicator: V-79/8-AZAGUANINE, Metabolic Activation: RAT HEPATOCYTES).

In the case of `C=CCc1[c-]cccc1.C=CCc1[c-]cccc1.[Pt+2].c1ccc(P(c2ccccc2)c2ccccc2)cc1.c1ccc(P(c2ccccc2)c2ccccc2)cc1`, the mutagenic call by setting is: (Test System: AMES SALMONELLA TYPHIMURIUM, Strain/Indicator: TA92, Metabolic Activation: NONE, Method: STANDARD PLATE) “inactive; negative”; under setting [1], “inactive; negative”; under setting [3], “inactive; negative”; (Test System: AMES SALMONELLA TYPHIMURIUM, Strain/Indicator: TA2410, Metabolic Activation: NONE, Method: STANDARD PLATE) “inactive; negative”.

In the case of `O=C(O)/C=C\C(=O)O`, the mutagenic call by setting is: (Test System: AMES SALMONELLA TYPHIMURIUM, Strain/Indicator: TA97, Metabolic Activation: NONE, Method: PREINCUBATION) “inactive; negative”; (Test System: AMES SALMONELLA TYPHIMURIUM, Strain/Indicator: TA97, Metabolic Activation: RAT, LIVER, S-9, PHENOBARBITAL AND 5,6-BENZOFLAVONE, Method: PREINCUBATION) “inactive; negative”; (Test System: AMES SALMONELLA TYPHIMURIUM, Strain/Indicator: TA98, Metabolic Activation: NONE, Method: PREINCUBATION) “inactive; negative”; under setting [1], “inactive; negative”; under setting [2], “inactive; negative”; (Test System: AMES SALMONELLA TYPHIMURIUM, Strain/Indicator: TA98, Metabolic Activation: RAT, LIVER, S-9, PHENOBARBITAL AND 5,6-BENZOFLAVONE, Method: PREINCUBATION) “inactive; negative”. Besides, the mutagenic call was “inactive; negative” (Test System: AMES SALMONELLA TYPHIMURIUM, Strain/Indicator: TA100, Metabolic Activation: NONE, Method: PREINCUBATION); “inactive; negative” under setting [3]; “inactive; negative” under setting [4]; “inactive; negative” (Test System: AMES SALMONELLA TYPHIMURIUM, Strain/Indicator: TA100, Metabolic Activation: RAT, LIVER, S-9, PHENOBARBITAL AND 5,6-BENZOFLAVONE, Method: PREINCUBATION); “inactive; negative” (Test System: AMES SALMONELLA TYPHIMURIUM, Strain/Indicator: TA102, Metabolic Activation: NONE, Method: PREINCUBATION); “inactive; negative” (Test System: AMES SALMONELLA TYPHIMURIUM, Strain/Indicator: TA102, Metabolic Activation: RAT, LIVER, S-9, PHENOBARBITAL AND 5,6-BENZOFLAVONE, Method: PREINCUBATION). For the same compound, the mutagenic call (Test System: AMES SALMONELLA TYPHIMURIUM, Strain/Indicator: TA104, Metabolic Activation: NONE, Method: PREINCUBATION) was “inactive; negative”; the mutagenic call (Test System: AMES SALMONELLA TYPHIMURIUM, Strain/Indicator: TA104, Metabolic Activation: RAT, LIVER, S-9, PHENOBARBITAL AND 5,6-BENZOFLAVONE, Method: PREINCUBATION) is “inactive; negative”; the mutagenic call under setting [5] was “inactive; negative”; the mutagenic call under setting [6] is “inactive; negative”; the mutagenic call under setting [7] is “inactive; negative”; the mutagenic call under setting [8] was “inactive; negative”. Moreover, the mutagenic call reads like this: under setting [9], “inactive; negative”; under setting [10], “inactive; negative”.

For the compound `[Ag]`, for the setting “End Point: In vivo micronucleus, Test System: Bone marrow polychromatic erythrocytes, Species: Rat, Strain/Sex: Sprague-Dawley/Male and Female, Route: Oral”, the mutagenic call is “inactive; negative”.

Regarding `Cn1c(N)nc2nc3ccccc3cc21`, the mutagenic call was “active; positive” (Test System: AMES SALMONELLA TYPHIMURIUM, Strain/Indicator: TA98, Metabolic Activation: RAT, LIVER, S-9, AROCLOR 1254A, Method: STANDARD PLATE) and “active; positive” (Test System: AMES SALMONELLA TYPHIMURIUM, Strain/Indicator: YG1024, Metabolic Activation: RAT, LIVER, S-9, AROCLOR 1254A, Method: STANDARD PLATE).
